Test [1] deals with T1, Protein deacetylase HDAC6 (Homo sapiens, UniProt Q9UBN7).
T1 sequence (Q9UBN7 whole entry): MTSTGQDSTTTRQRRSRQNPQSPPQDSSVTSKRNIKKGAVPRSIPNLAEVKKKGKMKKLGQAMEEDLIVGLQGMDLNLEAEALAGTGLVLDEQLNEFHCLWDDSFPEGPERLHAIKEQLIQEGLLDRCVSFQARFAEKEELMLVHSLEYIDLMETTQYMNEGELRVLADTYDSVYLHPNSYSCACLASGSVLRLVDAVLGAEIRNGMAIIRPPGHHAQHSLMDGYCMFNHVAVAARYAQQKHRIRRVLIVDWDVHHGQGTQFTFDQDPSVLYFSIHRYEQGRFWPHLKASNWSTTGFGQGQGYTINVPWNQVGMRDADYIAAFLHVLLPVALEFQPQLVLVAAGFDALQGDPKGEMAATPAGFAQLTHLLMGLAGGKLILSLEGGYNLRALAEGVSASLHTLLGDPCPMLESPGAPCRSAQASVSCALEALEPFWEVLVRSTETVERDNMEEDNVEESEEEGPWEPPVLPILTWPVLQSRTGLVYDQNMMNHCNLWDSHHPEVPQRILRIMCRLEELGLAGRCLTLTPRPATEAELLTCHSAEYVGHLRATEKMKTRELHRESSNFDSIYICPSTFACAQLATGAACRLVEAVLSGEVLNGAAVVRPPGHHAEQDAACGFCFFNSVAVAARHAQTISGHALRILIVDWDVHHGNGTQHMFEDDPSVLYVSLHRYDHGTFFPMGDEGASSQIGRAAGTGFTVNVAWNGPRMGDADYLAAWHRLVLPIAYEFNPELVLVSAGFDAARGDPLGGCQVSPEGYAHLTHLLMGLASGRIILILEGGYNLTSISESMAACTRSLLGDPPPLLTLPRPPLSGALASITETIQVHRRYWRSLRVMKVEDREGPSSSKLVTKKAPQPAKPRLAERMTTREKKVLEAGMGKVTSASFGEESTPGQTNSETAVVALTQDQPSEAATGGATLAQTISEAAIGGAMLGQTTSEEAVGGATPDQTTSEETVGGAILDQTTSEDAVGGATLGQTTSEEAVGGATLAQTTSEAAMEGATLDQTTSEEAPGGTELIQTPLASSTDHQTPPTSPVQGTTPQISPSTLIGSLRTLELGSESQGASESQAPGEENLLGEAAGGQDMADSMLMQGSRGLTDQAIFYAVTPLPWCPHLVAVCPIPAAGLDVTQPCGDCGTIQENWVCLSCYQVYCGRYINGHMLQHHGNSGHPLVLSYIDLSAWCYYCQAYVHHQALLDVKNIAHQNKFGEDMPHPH
The test can be described thus: Inhibition of recombinant full-length human N-terminal GST-tagged HDAC6 expressed in baculovirus infected Sf9 insect cells using fluorescent-labelled Arg-His-Lys-Lys(Ac) as substrate measured after 2 hrs by fluorescence assay.

For test [2], the target named is T1, Protein deacetylase HDAC6. The test can be described thus: Inhibition of HDAC6 (unknown origin).
Test [3] concerns the target T2, Histone deacetylase 1 (Homo sapiens, UniProt Q13547). Put plainly: Inhibition of HDAC1 (unknown origin).
For test [4], the target named is T3, Histone deacetylase 8 (Homo sapiens, UniProt Q9BY41).
T3 sequence (Q9BY41 whole entry): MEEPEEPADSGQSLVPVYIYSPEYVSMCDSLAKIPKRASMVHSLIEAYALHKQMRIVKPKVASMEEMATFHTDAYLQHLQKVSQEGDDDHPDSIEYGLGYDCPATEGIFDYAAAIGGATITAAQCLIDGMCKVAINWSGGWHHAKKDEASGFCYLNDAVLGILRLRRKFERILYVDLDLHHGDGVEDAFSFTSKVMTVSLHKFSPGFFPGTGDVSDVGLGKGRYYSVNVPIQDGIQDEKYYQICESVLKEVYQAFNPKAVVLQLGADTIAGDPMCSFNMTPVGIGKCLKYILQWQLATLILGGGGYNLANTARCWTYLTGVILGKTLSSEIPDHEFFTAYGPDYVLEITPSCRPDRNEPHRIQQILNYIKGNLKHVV
The test can be described thus: Inhibition of HDAC8 (unknown origin).

Test [5] concerns the target T2, Histone deacetylase 1. Put plainly: Inhibition of recombinant human HDAC1 expressed in HEK293T cells using Ac-KGLGK(Ac)-MCA as substrate measured after 30 mins by fluorescence assay.
The target in test [6] is T4, Histone deacetylase 4 (Homo sapiens, UniProt P56524). Put plainly: Inhibition of recombinant human HDAC4 expressed in HEK293T cells using Ac-KGLGK(Ac)-MCA as substrate measured after 30 mins by fluorescence assay.
In test [7] the target is T5, Protein deacetylase HDAC6 (Mus musculus, UniProt Q9Z2V5).
T5 sequence (Q9Z2V5 whole entry): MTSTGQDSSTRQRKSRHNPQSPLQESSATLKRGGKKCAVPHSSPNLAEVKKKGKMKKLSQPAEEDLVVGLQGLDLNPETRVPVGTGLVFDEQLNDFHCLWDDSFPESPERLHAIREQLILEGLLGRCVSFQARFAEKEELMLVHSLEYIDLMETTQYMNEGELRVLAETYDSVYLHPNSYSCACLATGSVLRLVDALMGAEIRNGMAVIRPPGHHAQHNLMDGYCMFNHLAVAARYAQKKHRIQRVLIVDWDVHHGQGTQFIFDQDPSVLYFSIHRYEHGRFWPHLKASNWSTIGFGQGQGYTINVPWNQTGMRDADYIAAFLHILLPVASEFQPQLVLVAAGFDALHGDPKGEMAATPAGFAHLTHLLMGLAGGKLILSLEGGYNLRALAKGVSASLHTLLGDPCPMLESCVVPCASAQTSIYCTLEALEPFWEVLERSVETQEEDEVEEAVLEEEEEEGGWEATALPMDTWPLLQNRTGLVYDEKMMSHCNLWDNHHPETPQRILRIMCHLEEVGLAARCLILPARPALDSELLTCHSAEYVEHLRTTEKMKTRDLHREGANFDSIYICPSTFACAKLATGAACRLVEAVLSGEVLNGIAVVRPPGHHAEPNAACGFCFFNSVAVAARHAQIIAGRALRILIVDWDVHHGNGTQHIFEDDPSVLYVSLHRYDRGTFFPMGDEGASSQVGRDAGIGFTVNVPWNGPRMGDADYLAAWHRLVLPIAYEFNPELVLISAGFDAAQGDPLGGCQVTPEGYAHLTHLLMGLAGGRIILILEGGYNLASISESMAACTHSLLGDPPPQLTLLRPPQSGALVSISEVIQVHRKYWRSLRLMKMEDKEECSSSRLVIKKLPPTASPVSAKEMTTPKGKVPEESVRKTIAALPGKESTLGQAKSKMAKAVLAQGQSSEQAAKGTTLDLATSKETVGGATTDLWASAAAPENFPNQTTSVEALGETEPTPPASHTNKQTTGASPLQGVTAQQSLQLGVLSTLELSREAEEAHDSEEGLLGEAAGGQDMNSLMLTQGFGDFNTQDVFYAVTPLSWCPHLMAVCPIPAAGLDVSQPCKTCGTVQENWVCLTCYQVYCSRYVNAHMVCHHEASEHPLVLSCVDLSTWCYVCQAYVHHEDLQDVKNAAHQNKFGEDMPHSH
Put plainly: Inhibition of recombinant mouse HDAC6 expressed in HEK293T cells using Ac-KGLGK(Ac)-MCA as substrate measured after 30 mins by fluorescence assay.

Test [8] has as its system MCF7. Put plainly: cells. To be noted: Homo sapiens, MCF7, 48 h.
In test [9] the test system is HeLa. Put plainly: cells. Particulars: Homo sapiens, 48 h.
Test [10] relates to K562. Put plainly: cells. Particulars: Homo sapiens, K562, 48 h.
Test [11] deals with T2, Histone deacetylase 1. The test can be described thus: Inhibition of recombinant human FLAG/His-tagged HDAC1 expressed in baculovirus expression system using Boc-l-Lys(Ac)-AMC as substrate preincubated up to 3 hrs and measured after 35 mins by fluorescence assay.
For test [12], the target named is Histone deacetylase 2 (Homo sapiens, UniProt Q92769).
Test [13] has as its target Histone deacetylase 3/Nuclear receptor corepressor 2 (HDAC3/NCoR2) (Homo sapiens, UniProt O15379). The test can be described thus: Inhibition of human recombinant full length C-terminal His-tagged HDAC3 (1 to 428 residues)/N-terminal GST-tagged NCOR2 (395 to 489 residues) expressed in insect cells using Boc-l-Lys(Ac)-AMC as substrate preincubated up to 3 hrs and measured after 35 mins by fluorescence assay.

Test [14] has as its target T3, Histone deacetylase 8. The test can be described thus: Inhibition of HDAC8 (unknown origin) expressed in Escherichia coli using BML-KI-178 as substrate preincubated up to 3 hrs and measured after 35 mins by fluorescence assay.
In test [15] the target is T1, Protein deacetylase HDAC6. Put plainly: Inhibition of HDAC6 in human HeLa nuclear extract using Boc-Lys(acetyl)-AMC as substrate measured after 30 mins by fluorescence assay. The format is cell-free.
In test [16] the target is T3, Histone deacetylase 8. Put plainly: Inhibition of HDAC8 in human HeLa nuclear extract using Boc-Lys(acetyl)-AMC as substrate measured after 30 mins by fluorescence assay. The format is cell-free.
The test system of test [17] is MDA-MB-231. Put plainly: cells. Particulars: Homo sapiens.
Test [18] has as its target T4, Histone deacetylase 4. The test can be described thus: Inhibition of HDAC4 (unknown origin).
Test [19] has as its target T2, Histone deacetylase 1. The test can be described thus: Inhibition of HDAC1 (unknown origin) using (FAM)-labeled acetylated peptide as substrate measured after 17 hrs by fluorescence assay.
The target in test [20] is Histone deacetylase. The format is cell-based, Homo sapiens. Particulars: hela.
Test [21] has as its target Histone deacetylase. The format is cell-based, Homo sapiens. To be noted: hela. This is another data set of the same source.

pIC50: −log10 of the molar value.

Histone deacetylase 3/Nuclear receptor corepressor 2 (HDAC3/NCoR2), sequence (O15379 whole entry, the tested form may be a part): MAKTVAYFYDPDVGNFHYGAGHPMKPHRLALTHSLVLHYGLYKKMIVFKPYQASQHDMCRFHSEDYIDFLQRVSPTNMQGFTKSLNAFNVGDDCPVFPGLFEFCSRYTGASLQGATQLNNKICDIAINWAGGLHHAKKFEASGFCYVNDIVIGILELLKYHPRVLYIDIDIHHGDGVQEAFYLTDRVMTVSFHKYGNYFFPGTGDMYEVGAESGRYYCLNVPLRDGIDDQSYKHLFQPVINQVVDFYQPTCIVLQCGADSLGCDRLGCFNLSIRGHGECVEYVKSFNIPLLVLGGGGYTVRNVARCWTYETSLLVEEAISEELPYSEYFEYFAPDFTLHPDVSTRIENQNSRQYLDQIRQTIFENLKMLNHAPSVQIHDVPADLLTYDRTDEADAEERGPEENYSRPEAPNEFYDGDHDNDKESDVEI
Histone deacetylase 3/Nuclear receptor corepressor 2 (HDAC3/NCoR2), sequence (Q9Y618 whole entry, further chain, the tested form may be a part): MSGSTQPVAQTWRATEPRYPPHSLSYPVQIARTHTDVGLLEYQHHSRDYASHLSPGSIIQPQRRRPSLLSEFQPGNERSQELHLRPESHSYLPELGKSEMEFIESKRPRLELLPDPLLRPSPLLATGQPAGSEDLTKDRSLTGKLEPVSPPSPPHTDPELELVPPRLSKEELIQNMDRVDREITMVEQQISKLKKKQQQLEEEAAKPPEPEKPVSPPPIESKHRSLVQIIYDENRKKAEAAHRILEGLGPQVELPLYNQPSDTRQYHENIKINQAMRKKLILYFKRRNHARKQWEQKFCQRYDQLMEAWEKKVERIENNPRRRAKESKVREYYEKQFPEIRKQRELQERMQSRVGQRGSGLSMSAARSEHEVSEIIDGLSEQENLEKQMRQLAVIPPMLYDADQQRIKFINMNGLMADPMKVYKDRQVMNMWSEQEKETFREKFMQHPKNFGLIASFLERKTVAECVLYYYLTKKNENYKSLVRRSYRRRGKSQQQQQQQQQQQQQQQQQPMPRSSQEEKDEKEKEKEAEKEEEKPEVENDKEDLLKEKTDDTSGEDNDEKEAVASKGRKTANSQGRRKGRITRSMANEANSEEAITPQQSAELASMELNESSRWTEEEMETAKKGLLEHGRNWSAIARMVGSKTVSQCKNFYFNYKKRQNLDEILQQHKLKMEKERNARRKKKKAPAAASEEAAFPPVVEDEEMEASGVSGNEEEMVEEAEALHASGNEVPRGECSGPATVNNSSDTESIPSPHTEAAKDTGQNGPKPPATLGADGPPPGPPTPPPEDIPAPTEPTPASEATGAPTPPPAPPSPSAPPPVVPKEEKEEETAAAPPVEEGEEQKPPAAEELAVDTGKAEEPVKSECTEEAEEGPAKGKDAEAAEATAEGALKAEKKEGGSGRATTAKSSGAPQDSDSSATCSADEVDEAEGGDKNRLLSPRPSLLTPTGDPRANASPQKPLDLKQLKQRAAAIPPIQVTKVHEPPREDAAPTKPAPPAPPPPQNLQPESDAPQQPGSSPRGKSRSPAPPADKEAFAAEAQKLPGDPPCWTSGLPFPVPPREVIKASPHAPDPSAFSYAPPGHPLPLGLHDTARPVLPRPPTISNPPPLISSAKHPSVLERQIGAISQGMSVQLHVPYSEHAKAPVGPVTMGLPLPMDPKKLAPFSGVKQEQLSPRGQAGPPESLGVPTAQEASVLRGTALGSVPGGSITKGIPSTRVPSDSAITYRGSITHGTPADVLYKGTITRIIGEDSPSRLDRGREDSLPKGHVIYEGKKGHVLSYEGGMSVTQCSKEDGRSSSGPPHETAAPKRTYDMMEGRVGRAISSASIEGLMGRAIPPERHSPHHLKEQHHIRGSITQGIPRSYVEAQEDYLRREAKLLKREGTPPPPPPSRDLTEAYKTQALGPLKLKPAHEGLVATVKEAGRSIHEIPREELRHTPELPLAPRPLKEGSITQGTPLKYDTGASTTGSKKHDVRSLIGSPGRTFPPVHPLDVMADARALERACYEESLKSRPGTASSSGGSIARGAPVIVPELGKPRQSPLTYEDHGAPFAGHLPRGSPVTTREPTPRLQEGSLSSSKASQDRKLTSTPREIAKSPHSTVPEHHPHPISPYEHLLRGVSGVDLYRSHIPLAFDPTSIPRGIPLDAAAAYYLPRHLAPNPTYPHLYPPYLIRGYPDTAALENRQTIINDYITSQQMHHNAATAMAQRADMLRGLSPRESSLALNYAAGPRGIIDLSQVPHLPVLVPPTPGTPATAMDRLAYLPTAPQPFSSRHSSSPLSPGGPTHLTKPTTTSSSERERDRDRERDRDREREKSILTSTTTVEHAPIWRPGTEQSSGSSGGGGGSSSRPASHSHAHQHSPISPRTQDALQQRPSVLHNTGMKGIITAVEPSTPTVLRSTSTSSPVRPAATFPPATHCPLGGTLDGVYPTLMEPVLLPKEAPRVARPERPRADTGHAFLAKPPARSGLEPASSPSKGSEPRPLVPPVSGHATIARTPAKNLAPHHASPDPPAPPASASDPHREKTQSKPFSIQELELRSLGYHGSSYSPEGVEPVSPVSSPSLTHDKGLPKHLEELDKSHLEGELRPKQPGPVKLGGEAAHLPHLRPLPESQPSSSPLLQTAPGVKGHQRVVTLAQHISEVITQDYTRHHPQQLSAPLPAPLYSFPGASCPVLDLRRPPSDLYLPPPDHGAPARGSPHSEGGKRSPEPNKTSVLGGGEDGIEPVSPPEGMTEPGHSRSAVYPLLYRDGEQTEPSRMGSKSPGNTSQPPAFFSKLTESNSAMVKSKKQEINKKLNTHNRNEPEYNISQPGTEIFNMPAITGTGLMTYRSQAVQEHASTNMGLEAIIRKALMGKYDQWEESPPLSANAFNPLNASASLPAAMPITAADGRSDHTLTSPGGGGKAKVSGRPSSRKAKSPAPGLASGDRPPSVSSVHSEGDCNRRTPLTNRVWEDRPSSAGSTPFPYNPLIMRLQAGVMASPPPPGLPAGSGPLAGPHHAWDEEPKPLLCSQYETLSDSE
Histone deacetylase 2, sequence (Q92769 whole entry, the tested form may be a part): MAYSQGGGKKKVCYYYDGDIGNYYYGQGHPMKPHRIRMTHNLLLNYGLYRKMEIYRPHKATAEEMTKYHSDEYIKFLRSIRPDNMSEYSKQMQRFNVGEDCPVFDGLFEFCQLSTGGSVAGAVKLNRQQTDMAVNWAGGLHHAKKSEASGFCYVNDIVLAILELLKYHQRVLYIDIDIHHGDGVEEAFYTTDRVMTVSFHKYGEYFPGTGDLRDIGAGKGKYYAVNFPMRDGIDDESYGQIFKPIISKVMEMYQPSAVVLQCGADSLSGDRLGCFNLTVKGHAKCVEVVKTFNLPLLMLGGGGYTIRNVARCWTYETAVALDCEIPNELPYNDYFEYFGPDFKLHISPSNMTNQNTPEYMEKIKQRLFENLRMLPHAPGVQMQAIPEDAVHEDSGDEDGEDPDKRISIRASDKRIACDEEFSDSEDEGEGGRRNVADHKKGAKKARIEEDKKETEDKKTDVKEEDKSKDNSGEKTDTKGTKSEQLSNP
T4 sequence (P56524 whole entry): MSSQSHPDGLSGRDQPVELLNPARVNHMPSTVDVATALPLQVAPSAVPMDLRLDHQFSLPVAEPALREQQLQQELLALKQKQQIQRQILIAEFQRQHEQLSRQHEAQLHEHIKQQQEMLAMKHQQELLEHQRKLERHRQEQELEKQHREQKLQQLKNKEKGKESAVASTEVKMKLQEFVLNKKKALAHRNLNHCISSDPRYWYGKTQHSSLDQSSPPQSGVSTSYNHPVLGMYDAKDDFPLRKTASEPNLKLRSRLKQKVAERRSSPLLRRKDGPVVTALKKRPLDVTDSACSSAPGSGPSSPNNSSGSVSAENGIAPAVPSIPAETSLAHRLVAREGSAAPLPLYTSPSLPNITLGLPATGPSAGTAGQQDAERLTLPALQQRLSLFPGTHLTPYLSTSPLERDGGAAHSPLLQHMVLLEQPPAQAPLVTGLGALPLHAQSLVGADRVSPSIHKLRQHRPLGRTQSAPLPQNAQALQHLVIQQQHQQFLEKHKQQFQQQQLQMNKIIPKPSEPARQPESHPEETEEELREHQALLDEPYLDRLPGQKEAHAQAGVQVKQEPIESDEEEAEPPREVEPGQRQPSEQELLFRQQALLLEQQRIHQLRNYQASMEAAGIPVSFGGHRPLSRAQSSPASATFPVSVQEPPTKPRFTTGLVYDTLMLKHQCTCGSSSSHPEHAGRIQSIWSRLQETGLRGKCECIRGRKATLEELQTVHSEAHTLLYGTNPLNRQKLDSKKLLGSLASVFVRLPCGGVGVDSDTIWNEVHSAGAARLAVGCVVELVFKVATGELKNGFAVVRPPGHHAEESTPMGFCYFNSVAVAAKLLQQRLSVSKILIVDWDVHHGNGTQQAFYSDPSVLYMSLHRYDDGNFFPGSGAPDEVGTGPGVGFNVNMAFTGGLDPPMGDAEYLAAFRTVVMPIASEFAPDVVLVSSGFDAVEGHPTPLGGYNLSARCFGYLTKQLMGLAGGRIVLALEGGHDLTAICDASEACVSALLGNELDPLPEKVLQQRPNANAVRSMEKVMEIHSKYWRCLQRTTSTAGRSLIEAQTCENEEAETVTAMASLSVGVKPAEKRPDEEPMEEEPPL
T2 sequence (Q13547 whole entry): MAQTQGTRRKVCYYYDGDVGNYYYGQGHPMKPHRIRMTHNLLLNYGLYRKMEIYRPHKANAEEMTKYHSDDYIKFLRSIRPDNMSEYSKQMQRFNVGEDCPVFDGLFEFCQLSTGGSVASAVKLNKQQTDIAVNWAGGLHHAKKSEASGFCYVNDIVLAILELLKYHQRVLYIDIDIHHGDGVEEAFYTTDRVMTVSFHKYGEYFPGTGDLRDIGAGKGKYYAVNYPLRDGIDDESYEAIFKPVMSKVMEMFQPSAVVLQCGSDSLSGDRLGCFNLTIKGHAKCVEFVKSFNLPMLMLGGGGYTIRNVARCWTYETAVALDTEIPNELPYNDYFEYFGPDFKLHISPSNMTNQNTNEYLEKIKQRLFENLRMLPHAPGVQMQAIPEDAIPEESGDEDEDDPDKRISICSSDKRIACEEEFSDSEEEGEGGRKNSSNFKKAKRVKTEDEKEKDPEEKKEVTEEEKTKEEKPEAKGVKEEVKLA

Consider `O=C(NO)c1ccc(N2CCCC2)cc1`, for which the pIC50 in [1] was 6.27.
Take `C[C@]12CC[C@@H]3c4ccc(O)cc4CC[C@H]3[C@@H]1CC[C@@]2(O)c1cn(CCCCCCC(=O)NO)nn1`: the figures for the negative-log IC50 (pIC50) in [2], in [3] and in test [4] were 7.49, 7.12 and 5.40, respectively.
For the compound `CCN(CC)c1ccc(C(=O)NO)cc1`, the pIC50 in test [1] was 5.20.
On to `CC1CCCCC12NC(=O)[C@H](CCCCCC(=O)NO)NC(=O)[C@H]1CCCN1C(=O)[C@H](Cc1ccccc1)NC2=O` (some centres undefined), for which the pIC50 in test [5] was 8.00; in test [6], 8.22; in test [7], 6.89; in test [8], 7.51; in [9], 6.51; in [10], 6.06.
`O=C(CCCCCCCNC(=O)c1c(-c2ccc(O)cc2)sc2cc(O)ccc12)NO`: the pIC50 is 6.77 in [11], 6.18 in test [12], 6.89 in test [13] and 6.40 in [14].
Consider `O=C(CCCCCn1cc(-c2ccc(C(=O)c3c(-c4ccc(O)cc4)sc4cc(O)ccc34)cc2)nn1)NO`, for which the pIC50 in [11] is 6.08; in [12], 4.72; in [13] it was 5.24; in [14], 4.63.
Take `CNCCOc1no[n+]([O-])c1S(=O)(=O)c1ccccc1`: the figures for the pIC50 in [15] and in test [16] were 6.80 and 6.59, respectively.
Take `CC1CCCC2(C1)NC(=O)[C@H](CCCCCC(=O)NO)NC(=O)[C@H]1CCCN1C(=O)[C@H](Cc1ccccc1)NC2=O` (some centres undefined): the pIC50 is 7.82 in test [5]; 7.85 in test [6]; 6.80 in test [7]; 7.59 in test [8]; 7.32 in test [9]; 6.98 in [10].
With `O=C(CCCCCCNC(=O)c1c(-c2ccc(O)cc2)sc2cc(O)ccc12)NO`, the pIC50 in [11] is 6.22; in test [12], 5.61; in [13] it was 6.67; in test [14], 6.14.
Consider `CC(CNC(=O)c1ccc(/C=C/C(=O)NO)cc1)Oc1no[n+]([O-])c1S(=O)(=O)c1ccccc1` (centres undefined), for which the pIC50 in test [15] was 6.55; in test [16], 6.38.
With `C[C@]12CC[C@@H]3c4ccc(O)cc4CC[C@H]3[C@@H]1CC[C@@]2(O)c1cn(CCCCC(=O)NO)nn1`, the pIC50 in test [2] was 8.10; in test [3] it was 7.82; in test [4] it was 4.96.
`O=C(CCCCCCC(=O)Nc1ccccc1)NO` [VORINOSTAT] gave a pIC50 in [17] of 5.67.
As for `O=C(NC(CCCCCSSCCCCCC(NC(=O)OCc1ccccc1)C(=O)Nc1cccc2cccnc12)C(=O)Nc1cccc2cccnc12)OCc1ccccc1` (centres undefined), the pIC50 was 8.12 in test [2], 8.09 in test [3] and 8.47 in [18].
As for `Nc1ccccc1NC(=O)CCCCCCC(=O)Nc1cccc(-c2cn(-c3ccccc3)nn2)c1`, in test [19], the pIC50 was < 4.52.
For `O=C(/C=C/c1ccc(C(=O)NCCCOc2no[n+]([O-])c2S(=O)(=O)c2ccccc2)cc1)NO`, the pIC50 in [15] was 6.64; in test [16] it was 6.34.
Turning to `C[C@]12CC[C@@H]3c4ccc(O)cc4CC[C@H]3[C@@H]1CC[C@@]2(O)c1cn(CCCCCCCC(=O)NO)nn1`, the pIC50 was 7.89 in test [2], 7.55 in test [3] and 6.35 in test [4].
With `CC(=O)SCCCCCC(NC(=O)OCc1ccccc1)C(=O)Nc1cccc2cccnc12` (centres undefined), the pIC50 in test [2] was 7.47; in test [3] it was 7.33; in [18], 7.74.
With `Cc1c(CN(C)C)c2ccccc2n1-c1ccc(C(=O)NO)cc1`, the pIC50 in test [1] was 8.90.
Regarding `COCCOCC(=O)SCCCCCC(NC(=O)OCc1ccccc1)C(=O)Nc1cccc2cccnc12` (centres undefined), the pIC50 in test [2] was 7.54; in test [3], 7.72; in test [18], 7.74.
`CCn1cnc(-c2ccc(OC)cc2)c1-c1ccc(/C=C/C(=O)NO)cc1`: the figures for the IC50 in test [20] and in [21] were 504 nM and 36 nM, respectively.
In the case of `O=C(CCCCCCn1cc(-c2ccc(C(=O)c3c(-c4ccc(O)cc4)sc4cc(O)ccc34)cc2)nn1)NO`, the pIC50 in test [11] was 5.99; in test [12] it was 5.74; in test [13], 6.13; in test [14], 4.52.

Usually pIC50 stands for the IC50 on a negative log10 scale, so that one unit is a factor of ten. The term IC50 denotes the point on the concentration scale where inhibition reaches its midpoint.

The record behind these values is ChEMBL document CHEMBL4422610, “HDAC as onco target: Reviewing the synthetic approaches with SAR study of their inhibitors” (Eur J Med Chem, 2018).
